How the values were obtained:
[1] = system: human microvascular endothelial cells (HMEC-1); experiment: Inhibition of LDL-Dil transcytosis through HMEC-1; type: cell-based; details: 2 h, mean ± s.e.m.; for Inhibition of LDL transcytosis, % of inhibition to control, Stimulated cells: HMEC-1 activated with 100 μM histamine; for Inhibition of LDL transcytosis, % of inhibition to control, Resting cells: non activated HMEC-1
Description: The method used in the assays to determine the effect of the compounds on LDL transcytosis in human microvascular endothelial cells is substantially the same as described in Colomé C. et al; Atherosclerosis 2000; 149: 295-302. This test allows a prediction on the anti-atherosclerotic potential of the compounds, since the accumulation of LDL in the vascular wall as a consequence of a vascular endothelial cell active transport is one of the first steps in the development of atherosclerosis.
The method used in the assays to isolate LDL particles from fresh human plasma and the labelling with Di1 is substantially the same as described in Pedreño J. et al., Atherosclerosis 2001; 155: 99-112, and Stephan Z. F. and Yuracheck E. C. J. Lipid Res. 1993; 34:325-330
Activated (100 μM histamine) and non activated HMEC-1 were cultivated in the upper well of inserted of coculture until to reach confluence (Falcon HTS FluorBloK). Then, LPL-Dil (up to 200 μg/ml) was added and cells were incubated for 2 h in the presence and absence of compounds. After these two hours, transcytosis of LDL-Dil particles through endothelial cells was assessed by determination of the presence of fluorescence in the lower well of insert of coculture. Results are expressed as percentage of inhibition respect to control in the absence of compounds).

LDL = experiment: Inhibition of LDL oxidation induced by haemin and H2O2 (conjugated dienes, 234 nm); type: biochemical, human; details: compounds at 10 μM; 2.5 μM haemin and 5 μM H2O2; mean ± s.e.m.
Description: The method used in the assays to determine the effect of the compounds on LDL oxidation is substantially the same as described in the following references: • Sprenger T., et al., Chem. Phys. Lipids 1998; 91:39-52 • Lynch S. M., et al., Biochim. Biophys. Acta 2000; 1485:11-22 • Pedreño J., et al., Thromb. Res. 2000; 99: 51-60.
The method used in the assays to isolate LDL particles from fresh human plasma is substantially the same as described in Pedreño J., et al., Atherosclerosis 2001; 155: 99-112.
Oxidative modification of low-density lipoprotein (LDL) is currently believed to be a central event it the development of atherosclerotic cardiovascular disease. The exposition of LDL to globin-free haemin (the complex of ferric ion (Fe^3+) with protoporphyrin IX), derived from the haemoglobin in circulating erythrocytes, serves as a physiological source of pro-oxidant Fe^3+ capable to promoting LDL oxidation. The compounds were added in vitro to determine their inhibitory activity on LDL oxidation induced by haemin and H2O2. LDL at a final protein concentration of 0.2 mg/ml was incubated in the presence of 2.5 μM haemin and 5 μM H202. Oxidative modification of LDL particles was assessed by measurement of conjugated dienes. Experimental samples were incubated at 37° C. and the increase in absorbance at 234 nm was automatically recorded every 5 min for at least 5 h. The effect of compounds on the LDL oxidation induced by haemin was tested at 7 different concentrations using LDL preparations from 7 different healthy donors.

[2] = system: heparinized plasma (plasma lipoproteins); experiment: Inhibition of plasma oxidation induced by Cu2+ (absorbance 234 nm); type: biochemical; details: compounds at 10 μM; 50 μM CuSO4; mean ± s.e.m.
Experimental: The method used in the assays to determine the effect of compounds on the capacity of oxidation of the plasma is substantially the same as described in Spranger T. et al., Chem Phys Lipids 1998; 91: 39-52.
Lipoprotein oxidation induced in vitro in plasma is expected to represent a relevant model of the lipoprotein oxidation in the arterial wall. Oxidation of plasma lipoproteins was assessed as the capacity of oxidation of heparinized plasma and was measured by spectrophotometry as in increase in absorbance at 234 nm. The compounds were added in vitro to determine their inhibitory activity over the capacity of oxidation of plasma induced by Cu^2+ (CuSO4). Heparinized plasma was diluted with phosphate-buffered saline solution (PBS) containing 0.16 M NaCl, and the oxidation was started by 50 μM CuSO4. Experimental samples were incubated at 37° C. and the increase in absorbance at 234 nm was automatically recorded every 15 min for at least 12 h. The effect of compounds over the capacity of oxidation of plasma induced by Cu^2+ was tested at 7 different concentrations using heparinizaded plasma from 7 different healthy donors.

Row | SMILES | Inhibition of LDL transcytosis, % of inhibition to control, Stimulated cells [1] [%] | Inhibition of LDL transcytosis, % of inhibition to control, Resting cells [1] [%] | % of increment of lag phase with respect to control (LDL oxidation) (LDL) [%] | % of increment of lag phase with respect to control (plasma oxidation) [2] [%]
1 | O=[N+]([O-])O[C@@H]1CO[C@H]2[C@@H]1OC[C@@H]2S [(1), 2-thioisosorbide 5-mononitrate] | 122 ± 8 | 58 ± 15 | 290 ± 8 | 245 ± 26
2 | CC(=O)S[C@H]1CO[C@H]2[C@@H]1OC[C@H]2O[N+](=O)[O-] [(12), 2-acetylthio-isosorbide-5-mononitrate] | 80 ± 12 | 51 ± 19 | 117 ± 56 | 200 ± 10

— patent US8541607B2, “Disulfide, sulfide, sulfoxide, and sulfone derivatives of cyclic sugars and uses thereof” (Lacer, S.A., priority 2003, dated 2013)
